The values below are quoted from earlier work in the PKSmart pharmacokinetics tables (Seal et al. 2025).

SMILES strings stand for the structures.

The data set can be described thus: Lombardo, Berellini, Obach 2018, Drug Metab Dispos 46:1466, doi 10.1124/dmd.118.082966. The conditions noted are these: human; for MRT / Vd / clearance / half-life: in vivo, iv; for fraction unbound: plasma.

By MRT is commonly meant a mean duration of stay, worked out from the concentration-time curve. For orientation: Vd means a proportionality between amount in the body and measured concentration, not a real space. As a reminder, the clearance is the volume of plasma or blood freed of the substance per unit of time. One may read the half-life as the time in which the quantity being followed falls by half. In the case of `CCC1=C[C@@H]2CN(CCc3c([nH]c4ccccc34)[C@@](C(=O)OC)(c3cc4c(cc3OC)N(C)[C@H]3[C@@](O)(C(=O)OC)[C@H](OC(C)=O)[C@]5(CC)C=CCN6CC[C@]43[C@@H]65)C2)C1`, the MRT is 17 h, the Vd is 12 L/kg, the clearance is 12 mL/min/kg and the half-life was 18 h.

For orientation: fraction unbound means the share of the substance not bound to proteins or other matrix. As for `CC(O)C(=O)Nc1c(I)c(C(=O)NC(CO)CO)c(I)c(C(=O)NC(CO)CO)c1I` (stereo not given), the MRT was 2.5 h, the Vd was 0.28 L/kg, the clearance is 1.9 mL/min/kg and the half-life is 2.1 h. For the same compound, the fraction unbound was 1.

`CCCn1c(=O)[nH]c(=O)c2nc[nH]c21`: the MRT is 2.6 h, the Vd is 0.63 L/kg, the clearance is 4 mL/min/kg and the half-life was 1.8 h. In addition, the fraction unbound is 0.55.

For `O=C1N=C(c2ccccc2Cl)c2cc(Cl)ccc2NC1O` (stereo not given), the MRT was 22 h, the Vd is 1.3 L/kg, the clearance was 1 mL/min/kg and the half-life was 17 h.

In the case of `CCOC(=O)C(CCc1ccccc1)NC(C)C(=O)N1Cc2cc(OC)c(OC)cc2CC1C(=O)O` (stereo not given), the clearance is 6.3 mL/min/kg, the half-life is 1.3 h and the fraction unbound was 0.12.

As to `CN(C)[C@@H]1C(O)=C(C(N)=O)C(=O)[C@@]2(O)C(O)=C3C(=O)c4c(O)cccc4[C@@](C)(O)[C@H]3[C@H](O)[C@@H]12`, the MRT is 12 h, the Vd was 1.7 L/kg, the clearance is 2 mL/min/kg and the half-life is 10 h. Besides, the fraction unbound is 0.9.

Consider `CCC1C(=O)N(C)c2cnc(Nc3ccc(C(=O)N[C@H]4CC[C@H](N5CCN(CC6CC6)CC5)CC4)cc3OC)nc2N1C(C)C` (stereo not given in full), for which the MRT was 116 h, the Vd was 80.5 L/kg, the clearance was 11.6 mL/min/kg and the half-life is 113 h.

For `N=C(N)Nc1ccc(C(=O)Oc2ccc3cc(C(=N)N)ccc3c2)cc1`, the MRT was 1.15 h, the Vd is 5.71 L/kg, the clearance is 82 mL/min/kg and the half-life was 1.84 h.

As for `CC(C)CC1C(=O)N2CCC[C@H]2[C@]2(O)O[C@@](C)(NC(=O)C3C[C@@H]4c5cccc6[nH]cc(c56)C[C@H]4N(C)C3)C(=O)N12` (stereo not given in full), the MRT was 5.01 h, the Vd was 4.02 L/kg, the clearance was 12.8 mL/min/kg and the half-life was 8.84 h.

For `Cc1cc(NC(=O)C2C(=O)c3ccccc3S(=O)(=O)N2C)no1` (stereo not given), the MRT was 44 h, the Vd is 0.19 L/kg, the clearance is 0.07 mL/min/kg and the half-life is 33 h.

In the case of `Cn1c(NCCN(CCO)CCCc2ccc([N+](=O)[O-])cc2)cc(=O)n(C)c1=O`, the MRT is 1.56 h, the Vd was 1.96 L/kg, the clearance is 20.9 mL/min/kg and the half-life was 1.52 h. In addition, the fraction unbound was 0.09.

For `CC(C)CN(C[C@@H](O)[C@H](Cc1ccccc1)NC(=O)O[C@H]1CO[C@H]2OCC[C@H]21)S(=O)(=O)c1ccc(N)cc1`, the clearance was 7.81 mL/min/kg and the half-life was 15 h.

Turning to `CN1CCN(CCCCN2C(=O)CN(/N=C/c3ccc(-c4ccc(Cl)cc4)o3)C2=O)CC1`, the MRT is 100 h, the Vd is 13 L/kg, the clearance was 2.4 mL/min/kg and the half-life was 79 h. For the same compound, the fraction unbound was 0.06.

Take `C=C1/C(=C\C=C2/CCC[C@]3(C)[C@@H]([C@H](C)CCCC(C)(C)O)CC[C@@H]23)C[C@@H](O)C[C@@H]1O`: the MRT was 13.3 h, the Vd was 0.25 L/kg, the clearance is 0.31 mL/min/kg and the half-life is 11 h.

`COC1=C(C(=O)O)N2C(=O)C(NC(=O)C(N)C3=CCC=CC3)[C@H]2SC1` (stereo not given in full): the MRT is 0.59 h, the Vd was 0.17 L/kg, the clearance was 4.78 mL/min/kg and the half-life is 0.74 h. Further, the fraction unbound was 0.1.

Take `CC(O)C(CO)NC(=O)C1CSSCC(NC(=O)C(N)Cc2ccccc2)C(=O)NC(Cc2ccccc2)C(=O)NC(Cc2c[nH]c3ccccc23)C(=O)NC(CCCCN)C(=O)NC(C(C)O)C(=O)N1` (stereo not given): the MRT is 1.3 h, the Vd was 0.19 L/kg, the clearance is 2.38 mL/min/kg and the half-life was 1.7 h. Moreover, the fraction unbound was 0.35.

`C=CC[N+]1([C@H]2C[C@H]3[C@@H]4CC[C@H]5C[C@H](O)[C@@H](N6CCOCC6)C[C@]5(C)[C@H]4CC[C@]3(C)[C@H]2OC(C)=O)CCCC1`: the MRT was 0.95 h, the Vd is 0.21 L/kg, the clearance is 3.7 mL/min/kg and the half-life is 1.6 h. The unbound share (fraction unbound) is 0.54.

Consider `Nc1c(CC(=O)O)cccc1C(=O)c1ccc(Br)cc1`, for which the MRT is 1.5 h, the Vd is 0.11 L/kg, the clearance was 1.3 mL/min/kg and the half-life was 2.6 h. Moreover, the fraction unbound is 0.0011.

Take `CCN(CC)C(=O)[C@]1(c2ccccc2)C[C@@H]1CN`: the MRT is 8.17 h, the Vd was 4.51 L/kg, the clearance is 8.17 mL/min/kg and the half-life was 6.48 h.

Turning to `NC(=S)NN=Cc1ncccc1N`, the MRT is 2.6 h, the Vd is 0.41 L/kg, the clearance is 2.65 mL/min/kg and the half-life was 1.9 h.

On to `CCC(C)CC(C)CCCCCCCCC(=O)NC1CC(O)C(NCCN)NC(=O)C2C(O)CCN2C(=O)C(C(O)CCN)NC(=O)C(C(O)C(O)c2ccc(O)cc2)NC(=O)C2CC(O)CN2C(=O)C(C(C)O)NC1=O` (stereo not given), for which the fraction unbound is 0.035.

As to `COc1cccc2c(C(=O)N3CCN(C)C(C)C3)cn(CC3CCCCC3)c12` (stereo not given), the MRT was 5.7 h, the Vd is 1 L/kg, the clearance is 3 mL/min/kg and the half-life was 4.2 h.

On to `COCCCC/C(=N\OCCN)c1ccc(C(F)(F)F)cc1`, for which the MRT is 12.3 h, the Vd was 23.5 L/kg, the clearance is 31.9 mL/min/kg and the half-life is 12.5 h. Besides, the fraction unbound was 0.2.

As to `CCOc1ccc(CC2=NCCc3cc(OCC)c(OCC)cc32)cc1OCC`, the MRT was 9 h, the Vd is 1.9 L/kg, the clearance was 3.5 mL/min/kg and the half-life was 9.3 h.

For `CN1c2ccccc2[C@@H](NCCCCCCC(=O)O)c2ccc(Cl)cc2S1(=O)=O`, the MRT was 1.9 h, the Vd was 0.3 L/kg, the clearance is 2.8 mL/min/kg and the half-life was 1.4 h.

Regarding `O=C1CN=C(c2ccccc2Cl)c2cc(Br)ccc2N1`, the MRT was 28.3 h, the Vd is 0.089 L/kg, the clearance was 0.05 mL/min/kg and the half-life was 14.9 h.

`CC(=O)O[C@H]1C[C@@H]2CC[C@@H]3[C@H](CC[C@@]4(C)[C@H]3C[C@H](N3CC[N+](C)(C)CC3)[C@@H]4OC(C)=O)[C@@]2(C)C[C@@H]1N1CC[N+](C)(C)CC1`: the MRT was 1.9 h, the volume of distribution (Vd) is 0.35 L/kg, the clearance is 3 mL/min/kg and the half-life is 1.9 h. The fraction unbound was 0.98.

For `C#CCC(Cc1cnc2nc(N)nc(N)c2n1)c1ccc(C(=O)NC(CCC(=O)O)C(=O)O)cc1` (stereo not given), the MRT was 3.7 h, the Vd is 1.01 L/kg, the clearance is 4.35 mL/min/kg and the half-life is 15 h. For the same compound, the fraction unbound is 0.33.

`CN(CC(O)=NO)C(=O)C1CCCCC1C(=O)O` (stereo not given): the MRT is 2.8 h, the Vd was 1 L/kg, the clearance was 6.3 mL/min/kg and the half-life was 2.6 h. The free fraction (fraction unbound) was 1.

For the compound `CC(CN1CCN(CCOCCO)CC1)CN1c2ccccc2Sc2ccccc21` (stereo not given), the MRT is 4.16 h, the Vd is 4.06 L/kg, the clearance was 16.3 mL/min/kg and the half-life was 3.11 h.

On to `CCN(CC)CCNc1ccc(CNC=O)c2sc3ccc(OC)cc3c(=O)c12`, for which the MRT is 5.4 h, the Vd was 1.01 L/kg, the clearance was 3.1 mL/min/kg and the half-life is 6.19 h.

For the compound `CCCC[S@](=N)(=O)CCC(N)C(=O)O` (stereo not given in full), the MRT is 1.9 h, the Vd was 0.26 L/kg, the clearance was 2.28 mL/min/kg and the half-life is 1.68 h.

Take `COC(=O)c1cnc2n1CCc1ccccc1C2=C1CCN(CCc2ccc(OCc3ccc4ccccc4n3)cc2)CC1`: the MRT is 7.1 h, the Vd is 6.03 L/kg, the clearance was 14.1 mL/min/kg and the half-life was 10.6 h. Further, the fraction unbound is 0.001.
